Assay results: patent USRE38994E1, “Pyropheophorbides conjugates and their use in photodynamic therapy” (Health Research, Inc., priority 1988, dated 2006)

How the values were obtained:
[1] = Normal foot response / skin clearance after light exposure; format: in vivo, albino Swiss mice (HaICR); conditions: for Normal Foot Response Maximum Reaction (score): same light conditions as tumor treatment, score 0.3 - slight edema, 0 - no reaction
Protocol: Six albino Swiss mice (HaICR) are injected intravenously with a dose of 0.1 mg/kg body weight of the compound of formula IIa prepared as in Example 1. After approximately 24 h, the hind foot of the animal is exposed to the same dose of either laser light at 660-670 nm (135 Joules/cm^2) or the Xenon arc lamp (283 Joules/cm^2) as above. The reaction of the foot is scored for damage over the next few days to determine the maximum effect, which in this case is a value 0.3 equivalent to slight edema. If the internal between the injection and light treatment is extended to approximately 48 h, the foot reaction is zero (no damage incurred), indicating either clearance or metabolism of the sensitizer.

[2] = test system: SMT-F tumor; test: In vivo tumor photosensitizing activity (photodynamic tumor treatment); parameters: species or system DBA/2 mice; conditions: for Tumor Response Day 1 (Number of non-palpable tumors/Number treated tumors) / Tumor Response Day 7 (Number of non-palpable tumors/Number treated tumors) / Tumor Response Day 30 (Number of non-palpable tumors/Number treated tumors) / Tumor Response Day 90 (Number of non-palpable tumors/Number treated tumors): time interval 24 hours, 135 J/cm^2 laser at 75 mW/cm^2
Protocol: When 2-[1-(O-hexyl)ethyl]devinyl pyropheophorbide-a - structure (5) in Scheme 1: S—RO—where R═(CH2)5CH3 and m═H, (formula IIa) synthesized as indicated (5.0 mg) is dissolved in Tween 80 (0.1 ml) and mixed with 10 ml Hanks Balanced Salt Solution (HBSS), a solution of approximately 0.5 mg/ml in […] is produced after filtration through a 0.22 AM Millipore filter. […] […] Alternately, a Xenon arc lamp filtered to emit a broader band width near 670 nm and approximately 283 Joules/cm^2 can be used.
This progresses to frank tumor necrosis over the next few days. […] At 30 days post treatment, six of the 10 tumors remain non-palpable, and one remains tumor-free to 90 days post treatment.

[3] = test system: tumor; test: in vivo tumoricidal activity assay; conditions: injected at a dose of 5 mg/kg
[4] = injected dose 0.1 mg/kg, wavelength 659
[5] = injected dose 0.3 mg/kg, wavelength 659
[6] = injected dose 0.3 mg/kg, wavelength 665
[7] = injected dose 0.3 mg/kg, wavelength 670
[8] = injected dose 0.3 mg/kg, wavelength 680
[9] = ten mice, 0.3 mg/kg intravenously, approx. 24 h later laser light at 660-670 nm, 135 Joules/cm^2
[10] = injected dose 0.1 mg/kg, wavelength 660
[11] = injected dose 0.3 mg/kg, wavelength 660

SMILES: CCCCCCOC(C)c1c(C)c2cc3nc(c4c5[nH]c(cc6nc(cc1[nH]2)C(C)=C6CC)c(C)c5C(=O)C4)[C@@H](CCC(=O)O)[C@@H]3C (stereo partly shown) [Formula II R5 = —O—(CH2)5CH3 R7 = —CO2H, 2-{1(O-hexyl)ethyl}devinyl pyropheophorbide-a]
- Foot reaction, maximum effect (damage score) ([1]; 0.1 mg/kg intravenously, hind foot exposed after approx. 24 h, 660-670 nm laser 135 Joules/cm^2 or Xenon arc lamp 283 Joules/cm^2, 0.3 equivalent to slight edema): 0.3
- Foot reaction (damage score) ([1]; 0.1 mg/kg intravenously, interval between injection and light treatment approx. 48 h, zero = no damage incurred): zero
- Normal Foot Response Maximum Reaction (score) ([1]; table row of injected dose 0.1 mg/kg, time interval 24 hours): 0.3
- Normal Foot Response Maximum Reaction (score) ([1]; table row of injected dose 0.3 mg/kg, time interval 48-72 hours): 0
- Tumor Response Day 1 (Number of non-palpable tumors/Number treated tumors) ([2]; injected dose 0.05 mg/kg, wavelength 659): 0/40
- Tumor Response Day 1 (Number of non-palpable tumors/Number treated tumors) [2, 4]: 6/6
- Tumor Response Day 7 (Number of non-palpable tumors/Number treated tumors) [2, 4]: 6/6
- Tumor Response Day 30 (Number of non-palpable tumors/Number treated tumors) [2, 4]: 1/6
- Tumor Response Day 90 (Number of non-palpable tumors/Number treated tumors) [2, 4]: 1/6
- Tumor Response Day 1 (Number of non-palpable tumors/Number treated tumors) ([2]; injected dose 0.3 mg/kg, wavelength 655): 0/10
- Tumor Response Day 1 (Number of non-palpable tumors/Number treated tumors) [2, 5]: 5/5
- Tumor Response Day 7 (Number of non-palpable tumors/Number treated tumors) [2, 5]: 4/5
- Tumor Response Day 30 (Number of non-palpable tumors/Number treated tumors) [2, 5]: 0/5
- Tumor Response Day 1 (Number of non-palpable tumors/Number treated tumors) [2, 6]: 10/10
- Tumor Response Day 7 (Number of non-palpable tumors/Number treated tumors) [2, 6]: 10/10
- Tumor Response Day 30 (Number of non-palpable tumors/Number treated tumors) [2, 6]: 2/10
- Tumor Response Day 90 (Number of non-palpable tumors/Number treated tumors) [2, 6]: 0/10
- Tumor Response Day 1 (Number of non-palpable tumors/Number treated tumors) [2, 7]: 10/10
- Tumor Response Day 7 (Number of non-palpable tumors/Number treated tumors) [2, 7]: 10/10
- Tumor Response Day 30 (Number of non-palpable tumors/Number treated tumors) [2, 7]: 6/10
- Tumor Response Day 90 (Number of non-palpable tumors/Number treated tumors) [2, 7]: 1/10
- Tumor Response Day 1 (Number of non-palpable tumors/Number treated tumors) [2, 8]: 1/10
- Tumor Response Day 7 (Number of non-palpable tumors/Number treated tumors) [2, 8]: 0/10
- Tumor state at 7 days post treatment [2, 9]: all tumors remain non-palpable and necrotic
- Tumor state the day after light treatment [2, 9]: all the tumors are seen to be flat (non-palpable)
- Tumor-free to 90 days post treatment (number of the 10) [2, 9]: one
- Tumors remaining non-palpable at 30 days post treatment [2, 9]: six of the 10

SMILES: C=Cc1c(C)c2cc3nc(c4c5[nH]c(cc6nc(cc1[nH]2)C(C)=C6CC)c(C)c5C(=O)[C@@H]4C(=O)OC)[C@@H](CCC(=O)OC)[C@@H]3C [Methyl pheophorbide-a]
- in vivo tumoricidal activity [3]: inactive

SMILES: CCCCCCOC(C)c1c(C)c2cc3nc(c4c5[nH]c(cc6nc(cc1[nH]2)C(C)=C6CC)c(C)c5C(=O)C4)[C@@H](CCC(=O)OC)[C@@H]3C (stereo partly shown) [Methyl-2-{1(O-hexyl)ethyl}-devinyl pyropheophorbide]
- Tumor Response Day 1 (Number of non-palpable tumors/Number treated tumors) [2, 10]: 5/5
- Tumor Response Day 30 (Number of non-palpable tumors/Number treated tumors) [2, 10]: 0/5
- Tumor Response Day 1 (Number of non-palpable tumors/Number treated tumors) [2, 11]: 6/6
- Tumor Response Day 7 (Number of non-palpable tumors/Number treated tumors) [2, 11]: 6/6
- Tumor Response Day 30 (Number of non-palpable tumors/Number treated tumors) [2, 11]: 3/6
- Tumor Response Day 90 (Number of non-palpable tumors/Number treated tumors) [2, 11]: 3/6
